Results published in patent publication US4950676A, “Amino-esters of dihydropyridines, and their use as circulatory agents for treating ischaemic heart diseases” (Bayer Aktiengesellschaft, priority 1986, dated 1990).
In brackets after ≈: the same amount, converted by molar mass.

How the values were obtained:
[1] = test system: hypertensive rats; test: arterial blood pressure of conscious spontaneously hypertensive rats (tail cuff) after oral administration; type: in vivo, rat (spontaneously hypertensive rats of the Okamoto strain); conditions: Rattus norvegicus, peroral, read-out: ED20 (reduction in blood pressure in hypertensive rats by 20 mm Hg)
Description: The compounds according to the invention are also active after oral administration. The arterial blood pressure of conscious rats with hypertension of genetic origin ("spontaneously hypertensive rats" of the Okamoto strain) is measured bloodlessly with a "tail cuff" at defined intervals of time after administration of the substance. The substances to be tested are suspended in a Tylose suspension and administered intragastrally ("orally") in various doses by means of a stomach tube. The compounds according to the invention reduce the arterial blood pressure of hypertensive rats in a clinically relevant dosage (see Table 3).
Table 3: Reduction in blood pressure in hypertensive rats by 20 mm Hg (ED20)

[2] = test system: isolated aortic ring; test: contraction of isolated rabbit aortic ring stimulated by noradrenaline (alpha-receptor); conditions: Oryctolagus cuniculus, isolated aortic ring from rabbits, read-out: IC50 b (active compound concentration at which the contraction of the aortic ring is inhibited by 50%)
Text: (§1) The specific calcium-antagonistic action of the compounds according to the invention is examined in a test on isolated rabbit vessels (aorta). In this test, contractions of the vascular muscle are caused in vitro by stimulation with KCl or by noradrenaline. KCl causes contractions due to the depolarization-dependent inwards flow of calcium ions.
(§2) These contractions are inhibited by calcium-antagonistic drugs as a function of the dose. Noradrenaline causes contractions by stimulation of the vascular alpha-receptors and the resulting release of calcium ions from the intracellular stores. The noradrenaline-induced contractions are not inhibited by specific calcium antagonists. In contrast, antagonists of the alpha-adrenoreceptors inhibit only the noradrenaline-induced contraction.
(§3) Table 1: Active compound concentration at which the contraction of the aortic ring is inhibited by 50% (IC50)
(§4) Isolated aortic ring from rabbits, stimulated

[3] = test system: isolated aortic ring; test: contraction of isolated rabbit aortic ring stimulated by KCl depolarization (calcium-antagonistic action); conditions: Oryctolagus cuniculus, isolated aortic ring from rabbits, read-out: IC50 a (active compound concentration at which the contraction of the aortic ring is inhibited by 50%)
Text: as §1, §2, §3, §4
(a) by KCl depolarization or […]

[4] = test system: anaesthetized cats; test: vein volume of an extremity by plethysmography with simultaneous arterial blood pressure recording in anaesthetized cats; type: in vivo, cat; conditions: Felis catus, iv; anaesthetized cats (ketamine), i.v., in comparison with the reference sodium nitroprusside; read-out: Dose giving significant increase in vein capacity
Description: The vein volume of an extremity is measured by plethysmography on anaesthetized cats (ketamine). The arterial blood pressure is also recorded at the same time. Calcium-antagonistic DHP derivatives known hitherto reduce the arterial blood pressure and reduce the vein volume by reflectory vein constriction.
Table 2: Significant increase in vein capacity in anaesthetized cats in comparison with the reference active substance sodium nitroprusside.

[5] = test system: anaesthetized cats; conditions: statement on known substances; in words; cited from earlier work

IC50 [2] | IC50 [3] | SMILES | ED (20 mm Hg) [1] | minimal effective dose [4] | vein volume (known substances) [5]
1.4 µg/mL (≈ 2.11 µM) | 0.5 µg/mL (≈ 0.754 µM) | COc1ccc2c(c1OC)CCN1CCC(NCCCOC(=O)C3=C(C)NC(C)=C(C(=O)OC(C)C)C3c3cccc([N+](=O)[O-])c3)CC21 (stereo not drawn) [Example 7, 3-Isopropyl 5-[3-(1,3,4,6,7,11b-hexahydro-8,9-dimethoxy-2H-benzo[a]quinolizin-2-yl-amino)propyl]1,4-dihydro-2,6-dimethyl-4-(3-nitrophenyl)pyridine-3,5-dicarboxylate] | 31.5 mg/kg |  | 
0.4 µg/mL (≈ 0.725 µM) | 0.016 µg/mL (≈ 0.029 µM) | CC1=C(C(=O)OCCNCC2COc3ccccc3O2)C(c2cccc([N+](=O)[O-])c2)C(C(=O)OC(C)C)=C(C)N1 (stereo not drawn) [Example 12, 3-Isopropyl 5-[2-(1,4-benzodioxan-2-yl-methylamino)ethyl]1,4-dihydro-2,6-dimethyl-4-(3-nitrophenyl)pyridine-3,5-dicarboxylate] |  | 0.1 mg/kg | 
1.6 µg/mL (≈ 2.47 µM) | 0.3 µg/mL (≈ 0.462 µM) | COc1ccc2c(c1OC)CCN1CCC(NCCOC(=O)C3=C(C)NC(C)=C(C(=O)OC(C)C)C3c3cccc([N+](=O)[O-])c3)CC21 (stereo not drawn) [Example 8, 3-Isopropyl 5-[2-(1,3,4,6,7,11b-hexahydro-8,9-dimethoxy-2H-benzo[a]quinolizin-2-yl-amino)ethyl]1,4-dihydro-2,6-dimethyl-4-(3-nitrophenyl)pyridine-3,5-dicarboxylate] | 31.5 mg/kg |  | 
0.18 µg/mL (≈ 0.335 µM) | 0.23 µg/mL (≈ 0.428 µM) | COC(=O)C1=C(C)NC(C)=C(C(=O)OCCN(C)CC2COc3ccccc3O2)C1c1cccc([N+](=O)[O-])c1 (stereo not drawn) [Example 11, 3-Methyl 5-{2-[N-(1,4-benzodioxan-2-yl-methyl)-N-methylamino]ethyl}1,4-dihydro-2,6-dimethyl-4-(3-nitrophenyl)pyridine-3,5-dicarboxylate] | 3 mg/kg | 0.1 mg/kg | 
0.7 µg/mL (≈ 1.34 µM) | 0.08 µg/mL (≈ 0.153 µM) | COC(=O)C1=C(C)NC(C)=C(C(=O)OCCNCC2COc3ccccc3O2)C1c1cccc([N+](=O)[O-])c1 (stereo not drawn) [Example 13, 3-Methyl 5-[2-(1,4-benzodioxan-2-yl-methylamino)ethyl]1,4-dihydro-2,6-dimethyl-4-(3-nitrophenyl)pyridine-3,5-dicarboxylate] | 3 mg/kg |  | 

More lines, now with the values behind:

SMILES | IC50 [2] | IC50 [3] | ED (20 mm Hg) [1] | minimal effective dose [4] | vein volume (known substances) [5]
COc1ccc2c(c1)CCN1CCC(NCCOC(=O)C3=C(C)NC(C)=C(C(=O)OC(C)C)C3c3cccc([N+](=O)[O-])c3)CC21 (stereo not drawn) [Example 9, 3-Isopropyl 5-[2-(1,3,4,6,7,11b-hexahydro-9-methoxy-2H-benzo[a]quinolizin-2-yl)amino]ethyl 1,4-dihydro-2,6-dimethyl-4-(3-nitrophenyl)pyridine-3,5-dicarboxylate] |  |  |  | 1 mg/kg | 
COC(=O)[C@@H]1[C@H]2C[C@H]3c4[nH]c5ccccc5c4CCN3C[C@@H]2CC[C@@H]1O [yohimbine] |  |  |  |  | increase in the vein volume
COC(=O)C1=C(C)NC(C)=C(C(=O)OCCCCCCN(CCN(Cc2ccccc2)C(C)COc2ccccc2)CCN(Cc2ccccc2)C(C)COc2ccccc2)C1c1cccc([N+](=O)[O-])c1 (stereo not drawn) [Example 2, 3-Methyl 5-{6-[bis-[2-[N-benzyl-N-(2-phenoxy-1-methylethyl)amino]ethyl]amino]hexyl}1,4-dihydro-2,6-dimethyl-4-(3-nitrophenyl)-pyridine-3,5-dicarboxylate] | 3 µg/mL (≈ 3.1 µM) | 0.9 µg/mL (≈ 0.931 µM) |  |  | 
CC1=C(C(=O)OCCNCCN(Cc2ccccc2)C(C)COc2ccccc2)C(c2cccc([N+](=O)[O-])c2)C(C(=O)OC(C)C)=C(C)N1 (stereo not drawn) [Example 3, 3-Isopropyl 5-{2-[2-[N-benzyl-N-(2-phenoxy-1-methylethyl)amino]ethylamino]ethyl}1,4-dihydro-2,6-dimethyl-4-(3-nitrophenyl)pyridine-3,5-dicarboxylate] | > 10 µg/mL | 0.23 µg/mL (≈ 0.343 µM) |  |  | 
CC1=C(C(=O)OCCN(CCN(Cc2ccccc2)C(C)COc2ccccc2)CCN(Cc2ccccc2)C(C)COc2ccccc2)C(c2cccc([N+](=O)[O-])c2)C(C(=O)OC(C)C)=C(C)N1 (stereo not drawn) [Example 4, 3-Isopropyl 5-(2-[bis-[2-[N-benzyl-N-(2-phenoxy-1-methylethyl)amino]ethyl]amino]ethyl}1,4-dihydro-2,6-dimethyl-4-(3-nitrophenyl)-pyridine-3,5-dicarboxylate] | 5 µg/mL (≈ 5.33 µM) | 0.4 µg/mL (≈ 0.426 µM) |  |  | 
COC(=O)C1=C(C)NC(C)=C(C(=O)OCCNC2CCN3CCc4c(ccc(OC)c4OC)C3C2)C1c1cccc([N+](=O)[O-])c1 (stereo not drawn) [Example 6] | 0.36 µg/mL (≈ 0.58 µM) | 0.26 µg/mL (≈ 0.419 µM) | 1 mg/kg |  | 
Cc1ccc(N(CC2=NCCN2)c2cccc(O)c2)cc1 [phentolamine] |  |  |  |  | increase in the vein volume
COC(=O)C1=C(C)NC(C)=C(C(=O)OCCCCCCNCCN(Cc2ccccc2)C(C)COc2ccccc2)C1c1cccc([N+](=O)[O-])c1 (stereo not drawn) [Example 1, 3-Methyl 5-{6-[2-[N-benzyl-N-(2-phenoxy-1-methylethyl)amino]ethylamino]hexyl}1,4-dihydro-2,6-dimethyl-4-(3-nitrophenyl)-pyridine-3,5-dicarboxylate] | > 10 µg/mL | 0.23 µg/mL (≈ 0.329 µM) |  |  | 
